Where “and” joins values, the source holds several entries; their conditions need not be identical. Equal values may be shown once. Read-outs that look alike come from different tables or passages of the source.
What was measured:
[1] = target: mannose-specific lectin concanavalin A (ConA) (Canavalia ensiformis, UniProt P02866); assay: ELLA (Enzyme-Linked Lectin Assay): inhibition of the combination of yeast mannan and horse-radish peroxidase-labelled ConA; type: binding; details: for Relative affinity / Relative molar affinity: relative to Me-α-D-Glcp = 1
Experimental: The affinity of the ureido-, thioureido-, ureidocysteaminyl- and thioureidocysteaminyl-cyclodextrin dimers of the invention which incorporate glucide substituents for specific membrane lectins in vitro is evaluated according to the ELLA (“Enzyme-Linked Lectin Assay”) protocol. Numerous examples of application of this protocol can be found in the article by J. J. Lundquist and E. J. Toon in Chem. Rev. 2002, 102, pp. 555-578. This technique measures the ability of a soluble mono- or oligosaccharide ligand to inhibit the association between a complementary lectin and another reference ligand bound to a plastic support microplate. Thus, the ureido-, thioureido-, ureidocysteaminyl- and thioureidocysteaminyl-cyclodextrin dimers carrying α-D-mannopyranosyl substituents are recognized by concanavalin A or by the mannose-specific lectin of the macrophages, the derivatives with β-lactosyl substituents are recognized by the lactose-specific lectin of Arachys hypogaea or hepatocytes, and the derivatives comprising the tetrasaccharide sialyl-Lewis X substituent are recognized by the selectins of the endothelium involved in the inflammation method.
The affinity of compounds no. 5 to 8 for the mannose-specific lectin concanavalin A (ConA) was evaluated according to the test ELLA protocol. The concentration of compounds no. […] The IC50 values are inversely proportional to the respective affinities.
The microtitration plate cells (Nunc-Immuno™ plates MaxiSorp™) are charged with 100 μl of a yeast mannan stock solution (Sigma, […]) in a saline phosphate buffer solution (PBS; pH 7.3 containing Ca^2+ 0.1 mM and Mn^2+ 0.1 mM) overnight at ambient temperature. The cells are washed (3×300 μl) with a buffer solution containing 0.05% (v/v) Tween 20 (PBTS). This washing protocol is repeated after each incubation during the test. A bovine serum albumin solution (BSA, 1%) in PBS (150 μg/cell) is then added to the cells, followed by incubation for 1 h at 37° C. and then washing.
To determine the optimum lectin concentration for the inhibition studies, 100 μl of a series of Con A solutions labelled with 10^−1 to 10^−5 mg.ml^−1 horse-radish peroxidase in PBS is added to the cells charged with the mannan, followed by treating as indicated above. After incubation at 37° C. for 1 hour, the plates are washed (PBST) and a solution (50 μl) of the diammonium salt of 2,2′-azinobis(3-ethylbenzothiazoline-6-sulphonic) acid (ABTS, 1 mg in 4 ml) in citrate buffer is added (0.2 M; pH 4.0 with 0.015% of oxygenated water). The reaction is stopped after 20 minutes by adding 50 μl/cell sulphuric acid 1 M and the absorbances are measured at 415 nm using an ELISA reader. The sample cells contain the citrate-phosphate buffer. The concentration of lectin marked with peroxidase giving an absorbance value between 0.8 and 1.0 (typically between 10^−2 and 10^−3 mg/ml^−1) was used in the inhibition assays.
For inhibition assays, stock solutions of compounds no. 5 to 8 were used at a concentration of 5 to 7 mg/ml^−1 in PBS. In a series of experiments, ConA marked with horse-radish peroxidase of suitable concentration as indicated above (60 μl/cell) is added to the solutions of each compound (60 μl/cell) in PBS, double-diluted in sequence, in a Nunclon™(Delta) microtitration plate which is incubated at 37° C. for 1 hour. The solutions (100 μl/cell) are then transferred to a microtitration plate charged with mannan and treated as indicated above, then being incubated at 37° C. for 1 hour. The cells are washed (PBST) and ABTS solution added (50 μl/cell). After 20 minutes, the reaction is stopped (sulphuric acid) and the absorbances are measured.
The inhibition percentage is calculated by the formula: […]

[2] = solubility in water of the cyclodextrin (dimer) derivative; type: physicochemical
[3] = inclusion of Taxotere into the cyclodextrin dimer: solubility of Taxotere in sterile water; type: physicochemical
Experimental: (§1) Taxotere in the pure state is used to start with and 8.3 mg (9.7 μmol) of this product is dispersed in 1 ml of a solution containing 10 mmol.l^−1 of compound no. 3 in sterile water, then the obtained suspension is stirred at 70° C. until a clear solution is obtained which signals the complexation of the Taxotere.
as §1, with “6.6” for “8.3”, “(7.7” for “(9.7”, “8 mmol/l^−1” for “10 mmol.l^−1”, “6” for “3”
as §1, with “5.8” for “8.3”, “([…]” for “(9.7”, “7 mmol/l^−1” for “10 mmol.l^−1”, “6” for “3”

[4] = inhibition of ConA-HRP binding to yeast mannan fixed to microtitration plate, average of three independent experiments, read-out: IC50

Row | Compound | Relative affinity [1] | Relative molar affinity [1] | IC50 [1, 4] [µM] | further results
1 | CO[C@H]1O[C@H](CO)[C@@H](O)[C@H](O)[C@H]1O [Me-α-D-Glcp, methyl-α-D-glucopyranoside, reference compound] | 1 | 1 | – | IC50 [1]: 865 µM
2 | OC[C@H]1O[C@@H]2O[C@H]3[C@H](O)[C@@H](O)[C@@H](O[C@H]4[C@H](O)[C@@H](O)[C@@H](O[C@H]5[C@H](O)[C@@H](O)[C@@H](O[C@H]6[C@H](O)[C@@H](O)[C@@H](O[C@H]7[C@H](O)[C@@H](O)[C@@H](O[C@H]8[C@H](O)[C@@H](O)[C@@H](O[C@H]1[C@H](O)[C@H]2O)O[C@@H]8CO)O[C@@H]7CO)O[C@@H]6CO)O[C@@H]5CNC(=S)NCCN(CCNC(=S)NC[C@H]1O[C@@H]2O[C@H]5[C@H](O)[C@@H](O)[C@@H](O[C@H]6[C@H](O)[C@@H](O)[C@@H](O[C@H]7[C@H](O)[C@@H](O)[C@@H](O[C@H]8[C@H](O)[C@@H](O)[C@@H](O[C@H]9[C@H](O)[C@@H](O)[C@@H](O[C@H]%10[C@H](O)[C@@H](O)[C@@H](O[C@H]1[C@H](O)[C@H]2O)O[C@@H]%10CO)O[C@@H]9CO)O[C@@H]8CO)O[C@@H]7CO)O[C@@H]6CO)O[C@@H]5CO)CCNC(=S)Nc1ccccc1)O[C@@H]4CO)O[C@@H]3CO [compound no. 4, bis[2-[N′-(6^I-deoxycyclomaltoheptaos-6^I-yl)thioureido]ethyl] 2-(N′-phenylthioureido)ethylamine] | – | – | – | solubility in water [2]: 115 g·L^−1 and 62 mmol·L^−1
3 | bis[2-[N′-(6^I-deoxycyclomaltoheptaos-6^I-yl)thioureido]ethyl] 2- [N′-(α-D-mannopyranosyl)thioureido]ethylamine [compound no. 5] | 0.67 | 0.67 | 1290 | –
4 | bis[2-[N′-(6^I-deoxycyclomaltoheptaos-6^I-yl)thioureido]ethyl] 2-(N′-methylthioureido)ethylamine [compound no. 3] | – | – | – | solubility of the Taxotere in a solution of the compound ([3]; 10 mmol.l^−1 of compound in sterile water, stirred at 70° C. until clear): 8300 µg/mL; stability of the Taxotere complex in solution once formed ([3]; ambient temperature, after complexation at 70° C.): remains in solution at ambient temperature
5 | bis[2-[N′-(6^I-deoxycyclomaltoheptaos-6^I-yl)thioureido]ethyl] 2-[N′-[2-[bis[2-[N′-(α-D-mannopyranosyl)thioureido]ethyl] amino]ethyl]thioureido]ethyl amine [compound no. 7] | 3.3 | 1.1 | 265 | –
6 | bis[2-[N′-(6^I-deoxycyclomaltoheptaos-6^I-yl)thioureido]ethyl] 2-[N′-[2-[bis[2-[N′-[tris(α-D-mannopyranosyloxymethyl) methyl]thioureido]ethyl] amino]ethyl]thioureido]ethylamine [compound no. 8] | 17.7 | 2.9 | 49 | times more effectively recognized by ConA compared with the monovalent cyclodextrin dimer derivative, compound no. 5 ([1]; versus compound no. 5): up to 25 times
7 | bis[2-[N′-(6^I-deoxycyclomaltoheptaos-6^I-yl)thioureido]ethyl] 2-[N′-[tris(2,3,4,6-tetra-O-acetyl-α-D-mannopyranosyloxy-methyl)methyl]thioureido]lethylamine [compound no. 6] | 0.76 | 0.38 | 1130 | stability of the Taxotere complex in solution once formed [3]: remains in solution at ambient temperature
